Source: Sander's compilation of Henry's law constants (doi:10.1093/jxb/48.5.1095)

Assay: Henry solubility constant Hcp at 298.15 K (mol/(m3 Pa))
Conditions: reference: Merk and Riederer (1997)

CCO [ethanol]
Henry solubility constant Hcp: 1.9

CCC(C)O (stereo not given) [2-butanol]
Henry solubility constant Hcp: 0.83

CCCCC(C)O (stereo not given) [2-hexanol]
Henry solubility constant Hcp: 0.48

CC(C)O [2-propanol]
Henry solubility constant Hcp: 1.2

CCCCCCO [1-hexanol]
Henry solubility constant Hcp: 0.58

CC(C)CO [2-methyl-1-propanol]
Henry solubility constant Hcp: 0.78

CCCCCO [1-pentanol]
Henry solubility constant Hcp: 0.77

CCCO [1-propanol]
Henry solubility constant Hcp: 1.5

CCCC(C)O (stereo not given) [2-pentanol]
Henry solubility constant Hcp: 0.66

CCC(C)(C)O [2-methyl-2-butanol]
Henry solubility constant Hcp: 0.7
